In ChEMBL document CHEMBL3808326, “Design and synthesis of novel hydroxypyridinone derivatives as potential tyrosinase inhibitors” (Bioorg Med Chem Lett, 2016):
Activity calls are given as the source filed them. The rule behind the calls is not given here.

What was measured:
Tyrosinase [1] = molecular target: T1, Tyrosinase (Agaricus bisporus, UniProt O42713); experiment: Inhibition of monophenolase activity of mushroom tyrosinase using L-tyrosine as substrate incubated for 10 mins by UV-Visible spectrophotometric analysis
T1 sequence (O42713 whole entry): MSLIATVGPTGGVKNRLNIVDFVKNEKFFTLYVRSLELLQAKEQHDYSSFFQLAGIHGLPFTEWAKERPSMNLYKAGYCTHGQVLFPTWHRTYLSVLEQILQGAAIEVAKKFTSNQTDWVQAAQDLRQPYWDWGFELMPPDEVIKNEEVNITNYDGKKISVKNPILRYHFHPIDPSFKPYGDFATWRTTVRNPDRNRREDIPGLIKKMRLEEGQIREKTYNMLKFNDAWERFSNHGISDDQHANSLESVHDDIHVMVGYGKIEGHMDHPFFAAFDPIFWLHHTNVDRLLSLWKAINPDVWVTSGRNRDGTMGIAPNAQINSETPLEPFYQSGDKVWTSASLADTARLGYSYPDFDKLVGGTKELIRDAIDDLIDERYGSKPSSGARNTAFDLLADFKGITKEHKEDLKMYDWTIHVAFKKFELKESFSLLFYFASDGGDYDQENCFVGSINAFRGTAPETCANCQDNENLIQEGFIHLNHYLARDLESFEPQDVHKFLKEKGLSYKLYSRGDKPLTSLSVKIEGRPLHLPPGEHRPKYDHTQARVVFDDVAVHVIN

Tyrosinase [2] = molecular target: T1, Tyrosinase; experiment: Inhibition of diphenolase activity of mushroom tyrosinase using L-DOPA as substrate incubated for 10 mins by UV-Visible spectrophotometric analysis
[3] = molecular target: T2, Tyrosinase (Agaricus bisporus) (UniProt O42713); experiment: Reversible inhibition of diphenolase activity of mushroom tyrosinase using L-DOPA as substrate at 4.17 to 33.33 uM incubated for 10 mins by UV-Visible spectrophotometric analysis
T2 sequence (whole entry): T1 sequence (O42713 whole entry)

Tyrosinase [4] = molecular target: T1, Tyrosinase; experiment: Inhibition of diphenolase activity of mushroom tyrosinase using L-DOPA as substrate assessed as enzyme-inhibitor complex incubated for 10 mins by Lineweaver-Burk plot method
Tyrosinase [5] = molecular target: T1, Tyrosinase; experiment: Inhibition of diphenolase activity of mushroom tyrosinase using L-DOPA as substrate assessed as enzyme-substrate-inhibitor complex incubated for 10 mins by Lineweaver-Burk plot method
[6] = molecular target: T2, Tyrosinase (Agaricus bisporus); experiment: Competitive-uncompetitive-mixed type inhibition of diphenolase activity of mushroom tyrosinase using L-DOPA as substrate incubated for 10 mins by Lineweaver-Burk plot method
[7] = Copper reducing activity in 0.4 mM cupric sulfate solution assessed as cuprous ion formation up to 0.15 mM after 10 mins by bathocuproinedisulfonic acid dye based spectrophotometric analysis; assay type: physicochemical
[8] = Copper chelating activity in pH 5 copper sulfate solution at 2.857 mM after 10 mins by tetramethylmurexide dye based assay relative to control; assay type: physicochemical; conditions: pH 5, 10 min, 2857 µM
[9] = Copper chelating activity in pH 7.4 copper sulfate solution at 2.857 mM after 10 mins by tetramethylmurexide dye based assay relative to control; assay type: physicochemical; conditions: pH 7.4, 10 min, 2857 µM

For `O=C(N[C@@H](Cc1ccccc1)C(=O)OCc1cc(=O)c(O)c[nH]1)OCc1ccccc1`, the IC50 (Tyrosinase [1]) was 1.95 µM, the IC50 (Tyrosinase [2]) was 8.97 µM and the inhibition [3] was “Active”. For the same molecule, the Ki (Tyrosinase [4]) was 17.2 µM, the Ki (Tyrosinase [5]) was 22.1 µM and the inhibition [6] was “Active”. For the same molecule, the Activity [7] was “Active”, the Activity [8] was 97.52% and the Activity [9] was 88.92%.
Molecule `CC(C)C[C@H](NC(=O)OCc1ccccc1)C(=O)OCc1cc(=O)c(O)c[nH]1` has an IC50 (Tyrosinase [1]) of 28.7 µM.
Work on `CC[C@H](C)[C@H](NC(=O)OCc1ccccc1)C(=O)OCc1cc(=O)c(O)c[nH]1` yielded an IC50 (Tyrosinase [1]) of 15.6 µM.
Work on `CC(C)C[C@H](NC(=O)[C@@H](N)Cc1ccccc1)C(=O)NCc1cc(=O)c(O)c[nH]1` yielded an IC50 (Tyrosinase [1]) of 6.93 µM.
With `CC(C)[C@H](NC(=O)OCc1ccccc1)C(=O)OCc1cc(=O)c(O)c[nH]1` the IC50 (Tyrosinase [1]) was 12.5 µM.
For `C[C@H](NC(=O)OCc1ccccc1)C(=O)OCc1cc(=O)c(O)c[nH]1`, the IC50 (Tyrosinase [1]) was 11.8 µM.
For `N[C@@H](Cc1ccccc1)C(=O)N[C@@H](Cc1ccccc1)C(=O)NCc1cc(=O)c(O)c[nH]1`, the IC50 (Tyrosinase [1]) was 2.79 µM, the IC50 (Tyrosinase [2]) was 26.2 µM and the inhibition [3] was “Active”. The Ki (Tyrosinase [4]) was 34.4 µM, the Ki (Tyrosinase [5]) was 79 µM and the inhibition [6] was “Active”.
In the case of `CC(C)[C@H](NC(=O)[C@@H](N)Cc1ccccc1)C(=O)NCc1cc(=O)c(O)c[nH]1`, the IC50 (Tyrosinase [1]) is reported as 14.3 µM.
